Reference: US20230365570A1, “COMPOUNDS WITH GLUCOCORTICOID SPARING EFFECTS AND USES THEREOF” (The Regents of the University of California, priority 2020, published 2023)
pIC50: −log10 of the molar value.

How the values were obtained:
Assay type in all cases: cell-based, human
THP-1 cells [1] = test: Cell viability by MTT assay in THP-1 cells; conditions: purchased compound
Method: Two types of tetrazolium were used for viability assays. […] After 18 h of incubation, 0.5 mg/ml 3[4,5-dimethylthiazol-2-yl]-2,5-dipheyl tetrazolium bromide (MTT; Thermo Fisher Scientific) in assay media was added to each well at a final concentration of (0.5 mg/ml) and further incubated for 4-6 h. The absorbances at 570 and 650 nm were measured by a Tecan Infinite M200 plate reader, For RA FLS, the cells were dispersed into 96-well flat bottom plates (104/200 μL/well) and incubated overnight. The next day, RA FLS were treated with 5 μM of each compound for 18 h of incubation. Ten μl of WST-8 [2-(2-methoxy-4-nitrophenyl)-3-(4-nitrophenyl)-5-(2,4-disulfophewnyl)-2H-tetrazolium, monosodium salt] solution was added to each well and the cells were further incubated for 2-4 h. The absorbance was measured at 450 nm with Bio-Rad iMark plate reader (Bio-Rad Laboratories Inc., Hercules, CA, Unites States).

THP-1 cells [2] = test: TNF stimulated CXCL8 release by THP-1 cells; conditions: TNF 2 ng/ml, overnight (FIG. 3B)
Method: (§1) THP-1 cells (10^5 cells/200 μL/well) and RA FLS (104/200 μL/well) were plated in 96 well plates and pre-treated with compound or vehicle for 1 h and then stimulated with either LPS (10 ng/ml), 1L-1ß (2 ng/ml) or TNF (2 ng/ml for THP-1 and 1 ng/ml for RA FLS). After 18 h of incubation, supernatants were collected and the levels of cytokines and chemokines in the culture supernatants were measured by ELISA according to the manufacturer's protocols (R&D systems, Minneapolis, MN).
(§2) The lead compounds belonging to chemotypes 1, 3, and 5 were tested for potency in suppressing chemokine and cytokine production by THP-1 cells in the presence of different inflammatory stimuli. The production of CXCL8 induced by either LPS (10 ng/ml), IL-1ß (2 ng/ml), or TNF (2 ng/ml) and TNF induced by IL-1ß (2 ng/ml) was assessed using serially diluted compounds. The compounds except 1-2 reduced the level of CXCL8 production stimulated by LPS in a dose dependent manner (FIG. 3A). However, the compounds from chemotype 5 enhanced CXCL8 release by THP-1 cells when stimulated with IL-111, or TNF (FIGS. 3B, C). […] The 1Cs0 for 1-1, 1-2 and 3-1 for IL-1ß stimulated CXCL8 release included 400, 1770, and 2020 nM, respectively, (FIG. 3C).

THP-1 cells [3] = test: CXCL8 production by LPS stimulated THP-1 cells (ELISA); conditions: LPS 10 ng/ml, purchased compound, mean LPS CXCL8 201.1 pg/ml = 100%
Method: as §1
The 122 hit compounds underwent additional screening and were evaluated for their effects on cell viability and the ability to suppress production of an NF-κB-associated chemokine, CXCL8 (IL-8) by LPS stimulated THP-1 cells (FIG. 2D). The cells were also examined for viability after 24 h of stimulation by MTT assay (FIG. 2E).
Three of the eleven chemotypes were excluded based on the potential for them to be Michael acceptors, In many cases α,β-unsaturated carbonyls such as those found in these chemotypes can form adducts with thiols, especially under physiological conditions (pH=6-8), reducing the in vivo efficacy. Also, Michael acceptors are often […] IKKß inhibitors and thereby inhibit NF-KB response. […]

THP-1 cells [4] = test: Combination and synergy of compounds with DEX, CXCL8 release by TNF stimulated THP-1 cells
Method: Drug synergy analysis was performed using lsobologram plots which were calculated according to reported procedures to compute IC50 and determine synergism. IC50 is computed from the median effect equation. Synergism analysis is carried out using the Combination index (Cl)-isobol method. Data analysis was performed using the CompuSyn software available on combisyn.com, Detailed methodology was used as described in a prior report. Briefly, the median-effect equation is computed to obtain the linear regression for the effect of inhibitors DEX and 1−1 as Fa/Fu=(D/D50)^m, where D is the dose; Fa and Fu is the fraction of the inhibition and uninhibited response by the dose D (Fa+Fu=1); D50 is the dose producing the median effect (i.e, IC50). The constant m determines the shape of the dose-effect curve. The median-effect equation in logarithmic form is log (Fa/Fu) =m log(D)−m log (D50) which essentially represents a linear relationship between log(Fa/Fu) and log(D). […] This is followed by Cl-isobol method to quantitatively assess the synergism between these inhibitor drugs. A combination index (Cl) is estimated from dose-effect data of single and combined drug treatments. A value of C; less than one indicates synergism; Cl=1 indicates additive effect; and Cl>1 indicates antagonism. Drug interaction (synergism or antagonism) is more pronounced the further a CI value is from 1. […] The doses Dx1 and Dx2 were estimated from the median effect equation above for single drug treatments. From the median effect equation, the estimated dose (i.e., D) necessary to produce the inhibition (i.e., Fa, Fu) obtained by the combination was calculated. The results are presented as a normalized isobolograrn. A point in the isobologram represents the effect of a drug(s) treatment.
To assess whether the remaining candidate compounds would provide additional benefit to a low dose of glucocorticoid, THP-1 cells were stimulated with TNF and treated them with serially diluted compounds and 100 nM DEX (FIGS. 4A-C). […] Next whether there was an additive or synergistic effect with these three compounds and DEX was formally addressed. […] The four CXCL8 levels below the maximum plateau were used to calculate an isobologram (FIG. 5D).

THP-1 cells [5] = test: IL-1ß stimulated CXCL8 release by THP-1 cells; conditions: IL-1ß 2 ng/ml, overnight (FIG. 3C)
Method: as §1, §2

Cc1ccc(-n2ncc3c(NC4CCCCC4)ncnc32)c(C)c1 [Compound 1-1]
% Cellular Viability (Purchased) (THP-1 cells [1]): 98.7%
pIC50 (THP-1 cells [2]): 6.05
CXCL8 production. Relative to LPS (purchased) (THP-1 cells [3]): 47.1%
Effect of addition of DEX on CXCL8 production (THP-1 cells [4]; TNF 2 ng/ml stimulated THP-1 cells, serially diluted compound plus 100 nM DEX (FIGS. 4A-C)): significantly reduced the CXCL8 production at all of the effective doses
Synergy with DEX, isobologram of potency ratios for CXCL8 (THP-1 cells [4]; TNF stimulated THP-1 cells, compound and DEX titrated at same molarity (FIG. 5D)): demonstrating synergy
pIC50 (THP-1 cells [4]; TNF stimulated THP-1 cells, single agents (FIG. 5A), read-out: IC50 for TNF stimulated CXCL8 release (titration with DEX)): 6.01
pIC50 (THP-1 cells [5]): 6.40
